From article PMC3448056, “2-Benzamido-N-(1H-benzo[d]imidazol-2-yl)thiazole-4-carboxamide derivatives as potent inhibitors of CK1δ/ε” (Amino Acids, 2012) come the findings set out here.

Common to all, as to experiment: KINOMEscan selectivity profiling
Holding throughout (format): binding

One experiment concerns the target T1, CSNK1G2 (Homo sapiens, UniProt P78368).
T1 construct: purchased Ambit Biosciences Cooperation, San Diego, USA (KINOMEscan)
The note with it: remaining relative to controls, read-out: %Ctrl @ 10 μM (CSNK1G2). As to the method: (§1) KINOMEscan™ was performed to determine binding constants of coumpound 5 to 442 eukaryotic kinases by Ambit Biosciences Cooperation, San Diego, USA.

For another experiment, the target named is T2, CLK1 (Homo sapiens, UniProt P49759).
T2 construct: purchased Ambit Biosciences Cooperation, San Diego, USA (KINOMEscan)
T2 sequence (P49759 whole entry): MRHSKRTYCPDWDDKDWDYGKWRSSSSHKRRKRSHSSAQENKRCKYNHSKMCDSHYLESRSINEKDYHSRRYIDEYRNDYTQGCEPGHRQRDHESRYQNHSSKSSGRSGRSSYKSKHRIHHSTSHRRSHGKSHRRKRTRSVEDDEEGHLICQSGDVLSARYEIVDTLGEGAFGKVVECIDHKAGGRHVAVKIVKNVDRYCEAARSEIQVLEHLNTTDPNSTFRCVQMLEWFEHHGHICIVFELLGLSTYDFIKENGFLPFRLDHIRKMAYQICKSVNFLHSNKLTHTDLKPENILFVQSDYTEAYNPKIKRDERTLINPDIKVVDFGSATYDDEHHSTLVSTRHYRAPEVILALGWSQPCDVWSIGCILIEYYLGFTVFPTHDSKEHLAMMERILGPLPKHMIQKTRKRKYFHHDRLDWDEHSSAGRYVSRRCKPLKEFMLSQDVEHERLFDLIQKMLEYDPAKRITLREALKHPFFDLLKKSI
The note with it: remaining relative to controls, read-out: %Ctrl @ 10 μM (CLK1). As to the method: as §1

A further experiment concerns the target T3, FLT3(D835H) (Homo sapiens, UniProt P36888, D835H).
T3 construct: purchased Ambit Biosciences Cooperation, San Diego, USA (KINOMEscan)
The note with it: remaining relative to controls, read-out: %Ctrl @ 10 μM (FLT3(D835H)). As to the method:
as §1

The target of the next experiment is T4, CSNK1A1L (Homo sapiens, UniProt Q8N752).
T4 construct: purchased Ambit Biosciences Cooperation, San Diego, USA (KINOMEscan)
T4 sequence (Q8N752 whole entry): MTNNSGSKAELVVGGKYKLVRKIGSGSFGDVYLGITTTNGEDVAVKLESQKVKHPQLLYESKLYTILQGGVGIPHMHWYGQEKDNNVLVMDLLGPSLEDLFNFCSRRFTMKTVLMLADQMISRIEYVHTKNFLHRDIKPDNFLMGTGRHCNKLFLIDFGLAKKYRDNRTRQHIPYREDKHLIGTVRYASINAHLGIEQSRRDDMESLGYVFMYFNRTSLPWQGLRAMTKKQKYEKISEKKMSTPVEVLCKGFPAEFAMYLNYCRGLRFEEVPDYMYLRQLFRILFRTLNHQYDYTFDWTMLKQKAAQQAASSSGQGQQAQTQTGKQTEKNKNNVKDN
The note with it: remaining relative to controls, read-out: %Ctrl @ 10 μM (CSNK1A1L). The protocol:
as §1

The next experiment addresses T5, FLT3(D835Y) (Homo sapiens, UniProt P36888, D835Y).
T5 construct: purchased Ambit Biosciences Cooperation, San Diego, USA (KINOMEscan)
The note with it: remaining relative to controls, read-out: %Ctrl @ 10 μM (FLT3(D835Y)). The protocol: as §1

A further experiment has as its target T6, CLK3 (Homo sapiens, UniProt P49761).
T6 construct: purchased Ambit Biosciences Cooperation, San Diego, USA (KINOMEscan)
The note with it: remaining relative to controls, read-out: %Ctrl @ 10 μM (CLK3). The protocol:
as §1

For another experiment, the target named is T7, CSNK1E (Homo sapiens, UniProt P49674).
T7 construct: purchased Ambit Biosciences Cooperation, San Diego, USA (KINOMEscan)
T7 sequence (P49674 whole entry): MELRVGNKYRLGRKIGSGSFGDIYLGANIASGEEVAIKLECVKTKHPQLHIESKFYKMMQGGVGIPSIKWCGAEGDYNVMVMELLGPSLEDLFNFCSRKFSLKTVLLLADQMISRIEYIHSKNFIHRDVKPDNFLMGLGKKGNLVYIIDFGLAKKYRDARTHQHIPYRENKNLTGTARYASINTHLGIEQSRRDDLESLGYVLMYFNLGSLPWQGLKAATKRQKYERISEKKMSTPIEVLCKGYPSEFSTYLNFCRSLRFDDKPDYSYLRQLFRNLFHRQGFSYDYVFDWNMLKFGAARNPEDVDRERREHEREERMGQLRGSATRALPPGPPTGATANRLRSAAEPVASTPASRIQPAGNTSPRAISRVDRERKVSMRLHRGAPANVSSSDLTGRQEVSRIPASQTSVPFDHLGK
The note with it: remaining relative to controls, read-out: %Ctrl @ 10 μM (CSNK1E). As to the method: as §1

Another experiment has as its target T8, PIP5K2C (Homo sapiens, UniProt Q8TBX8).
T8 construct: purchased Ambit Biosciences Cooperation, San Diego, USA (KINOMEscan)
The note with it: remaining relative to controls, read-out: %Ctrl @ 10 μM (PIP5K2C). As to the method: as §1

The target in the next experiment is T9, CSNK1G3 (Homo sapiens, UniProt Q9Y6M4).
T9 construct: purchased Ambit Biosciences Cooperation, San Diego, USA (KINOMEscan)
T9 sequence (Q9Y6M4 whole entry): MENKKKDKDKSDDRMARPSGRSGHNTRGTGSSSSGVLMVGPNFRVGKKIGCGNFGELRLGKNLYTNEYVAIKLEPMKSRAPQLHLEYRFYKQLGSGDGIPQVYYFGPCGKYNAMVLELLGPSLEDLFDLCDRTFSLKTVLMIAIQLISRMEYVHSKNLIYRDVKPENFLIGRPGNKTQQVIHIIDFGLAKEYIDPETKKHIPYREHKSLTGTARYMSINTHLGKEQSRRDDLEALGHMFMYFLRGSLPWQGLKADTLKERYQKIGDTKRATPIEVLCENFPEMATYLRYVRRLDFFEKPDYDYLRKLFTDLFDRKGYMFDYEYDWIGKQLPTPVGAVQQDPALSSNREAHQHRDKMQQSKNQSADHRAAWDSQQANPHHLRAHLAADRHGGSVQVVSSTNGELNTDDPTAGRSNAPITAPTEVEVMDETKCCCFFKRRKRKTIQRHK
The note with it: remaining relative to controls, read-out: %Ctrl @ 10 μM (CSNK1G3). The protocol:
as §1

T1 sequence (P78368 whole entry): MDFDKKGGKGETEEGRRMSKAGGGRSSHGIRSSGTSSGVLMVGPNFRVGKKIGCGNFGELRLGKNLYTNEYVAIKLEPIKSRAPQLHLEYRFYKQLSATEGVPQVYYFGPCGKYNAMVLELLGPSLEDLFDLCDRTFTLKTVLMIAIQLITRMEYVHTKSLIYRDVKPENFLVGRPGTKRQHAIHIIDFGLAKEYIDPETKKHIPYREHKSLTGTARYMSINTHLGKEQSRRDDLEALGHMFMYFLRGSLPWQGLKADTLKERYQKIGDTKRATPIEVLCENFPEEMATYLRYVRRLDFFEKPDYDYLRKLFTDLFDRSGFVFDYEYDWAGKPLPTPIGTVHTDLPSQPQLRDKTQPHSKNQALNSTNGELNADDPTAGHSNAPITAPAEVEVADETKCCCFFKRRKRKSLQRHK
T6 sequence (P49761 whole entry): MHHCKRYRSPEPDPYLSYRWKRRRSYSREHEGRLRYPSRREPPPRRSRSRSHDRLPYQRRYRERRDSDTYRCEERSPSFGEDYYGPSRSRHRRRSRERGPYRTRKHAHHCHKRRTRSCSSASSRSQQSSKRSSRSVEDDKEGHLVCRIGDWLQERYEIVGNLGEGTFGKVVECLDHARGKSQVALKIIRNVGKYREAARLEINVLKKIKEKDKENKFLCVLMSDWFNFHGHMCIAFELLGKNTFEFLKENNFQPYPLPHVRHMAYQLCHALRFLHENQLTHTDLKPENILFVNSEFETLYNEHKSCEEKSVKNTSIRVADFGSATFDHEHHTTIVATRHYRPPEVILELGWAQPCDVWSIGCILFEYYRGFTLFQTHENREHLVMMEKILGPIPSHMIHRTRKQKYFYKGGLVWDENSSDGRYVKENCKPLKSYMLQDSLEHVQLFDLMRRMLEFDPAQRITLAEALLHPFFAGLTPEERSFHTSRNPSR
T8 sequence (Q8TBX8 whole entry): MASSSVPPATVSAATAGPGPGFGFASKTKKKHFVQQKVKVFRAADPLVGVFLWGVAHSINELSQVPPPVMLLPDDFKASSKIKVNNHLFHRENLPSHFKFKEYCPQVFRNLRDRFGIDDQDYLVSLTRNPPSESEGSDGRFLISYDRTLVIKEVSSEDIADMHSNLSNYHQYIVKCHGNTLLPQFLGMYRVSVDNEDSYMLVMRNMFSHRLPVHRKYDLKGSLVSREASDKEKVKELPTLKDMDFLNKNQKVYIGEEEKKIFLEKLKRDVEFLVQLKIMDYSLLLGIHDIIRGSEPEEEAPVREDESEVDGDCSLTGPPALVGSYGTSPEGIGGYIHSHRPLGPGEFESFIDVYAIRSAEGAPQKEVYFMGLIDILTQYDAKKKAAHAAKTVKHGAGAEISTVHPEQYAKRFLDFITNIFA

Consider `O=C(Nc1nc2ccc(C(F)(F)F)cc2[nH]1)c1csc(NC(=O)c2ccccc2OC(F)(F)F)n1` [Compound 5, 2-(2-(Trifluoromethoxy)benzamido)-N-(6-(trifluoromethyl)-1H-benzo[d]imidazol-2-yl)thiazole-4-carboxamide], for which the remaining binding at 10 µM was 9.9% at CSNK1G2; 2.6% on CLK1; 25% on FLT3(D835H); 1% at CSNK1A1L; 10% at FLT3(D835Y); 20% on CLK3. Besides, the remaining binding at 10 µM at CSNK1E turned out to be 0.35%; on PIP5K2C, 9.6%; on CSNK1G3, 31%.
